Key:
[1] = tested on: CCRF-CEM (leukemia); test: NCI-60 SRB cytotoxicity screen; assay type: cell-based; conditions: Homo sapiens, single dose 10 μM, read-out: growth inhibition (GI%)
[2] = tested on: K-562 (leukemia); test: NCI-60 SRB cytotoxicity screen; assay type: cell-based; conditions: Homo sapiens; K-652 [sic], single dose 10 μM; read-out: growth inhibition (GI%)
[3] = tested on: RPMI-8226 (leukemia); test: NCI-60 SRB cytotoxicity screen; assay type: cell-based; conditions: Homo sapiens; RPMI-8226, single dose 10 μM; read-out: growth inhibition (GI%)
[4] = tested on: A549/ATCC (non-small cell lung cancer); test: NCI-60 SRB cytotoxicity screen; assay type: cell-based; conditions: Homo sapiens, single dose 10 μM, read-out: growth inhibition (GI%)
[5] = tested on: EKVX (non-small cell lung cancer); test: NCI-60 SRB cytotoxicity screen; assay type: cell-based; conditions: Homo sapiens, single dose 10 μM, read-out: growth inhibition (GI%)
[6] = tested on: HOP-62 (non-small cell lung cancer); test: NCI-60 SRB cytotoxicity screen; assay type: cell-based; conditions: Homo sapiens; HOP-62, single dose 10 μM; read-out: growth inhibition (GI%)
[7] = tested on: NCI-H522 (non-small cell lung cancer); test: NCI-60 SRB cytotoxicity screen; assay type: cell-based; conditions: Homo sapiens; NCI-H522, single dose 10 μM; read-out: growth inhibition (GI%)
[8] = tested on: COLO 205 (colon cancer); test: NCI-60 SRB cytotoxicity screen; assay type: cell-based; conditions: Homo sapiens; COLO 205, single dose 10 μM; read-out: growth inhibition (GI%)
[9] = tested on: HCT-15 (colon cancer); test: NCI-60 SRB cytotoxicity screen; assay type: cell-based; conditions: Homo sapiens; HCT-15, single dose 10 μM; read-out: growth inhibition (GI%)
[10] = tested on: KM12 (colon cancer); test: NCI-60 SRB cytotoxicity screen; assay type: cell-based; conditions: Homo sapiens; KM12, single dose 10 μM; read-out: growth inhibition (GI%)
[11] = tested on: SF-268 (CNS cancer); test: NCI-60 SRB cytotoxicity screen; assay type: cell-based; conditions: Homo sapiens; SF-268, single dose 10 μM; read-out: growth inhibition (GI%)
[12] = tested on: SF-295 (CNS cancer); test: NCI-60 SRB cytotoxicity screen; assay type: cell-based; conditions: Homo sapiens; SF-295, single dose 10 μM; read-out: growth inhibition (GI%)
[13] = tested on: SNB-75 (CNS cancer); test: NCI-60 SRB cytotoxicity screen; assay type: cell-based; conditions: Homo sapiens, SNB-75, SNB-75, single dose 10 μM; read-out: growth inhibition (GI%)
[14] = tested on: LOX IMVI (melanoma); test: NCI-60 SRB cytotoxicity screen; assay type: cell-based; conditions: Homo sapiens, single dose 10 μM, read-out: growth inhibition (GI%)
[15] = tested on: MALME-3M (melanoma); test: NCI-60 SRB cytotoxicity screen; assay type: cell-based; conditions: Homo sapiens, single dose 10 μM, read-out: growth inhibition (GI%)
[16] = tested on: SK-MEL-2 (melanoma); test: NCI-60 SRB cytotoxicity screen; assay type: cell-based; conditions: Homo sapiens; SK-MEL-2, single dose 10 μM; read-out: growth inhibition (GI%)
[17] = tested on: UACC-257 (melanoma); test: NCI-60 SRB cytotoxicity screen; assay type: cell-based; conditions: Homo sapiens; UACC-257, single dose 10 μM; read-out: growth inhibition (GI%)
[18] = tested on: UACC-62 (melanoma); test: NCI-60 SRB cytotoxicity screen; assay type: cell-based; conditions: Homo sapiens; UACC-62, single dose 10 μM; read-out: growth inhibition (GI%)
[19] = tested on: IGROV1 (ovarian cancer); test: NCI-60 SRB cytotoxicity screen; assay type: cell-based; conditions: Homo sapiens, IGROV-1; IGROV1, single dose 10 μM; read-out: growth inhibition (GI%)
[20] = tested on: OVCAR-5 (ovarian cancer); test: NCI-60 SRB cytotoxicity screen; assay type: cell-based; conditions: Homo sapiens; OVCAR-5, single dose 10 μM; read-out: growth inhibition (GI%)
[21] = tested on: OVCAR-8 (ovarian cancer); test: NCI-60 SRB cytotoxicity screen; assay type: cell-based; conditions: Homo sapiens; OVCAR-8, single dose 10 μM; read-out: growth inhibition (GI%)
[22] = tested on: NCI/ADR-RES (ovarian cancer); test: NCI-60 SRB cytotoxicity screen; assay type: cell-based; conditions: Homo sapiens, single dose 10 μM, read-out: growth inhibition (GI%)
[23] = tested on: SK-OV-3 (ovarian cancer); test: NCI-60 SRB cytotoxicity screen; assay type: cell-based; conditions: Homo sapiens; SK-OV-3, single dose 10 μM; read-out: growth inhibition (GI%)
[24] = tested on: ACHN (renal cancer); test: NCI-60 SRB cytotoxicity screen; assay type: cell-based; conditions: Homo sapiens, single dose 10 μM, read-out: growth inhibition (GI%)
[25] = tested on: RXF 393 (renal cancer); test: NCI-60 SRB cytotoxicity screen; assay type: cell-based; conditions: Homo sapiens; RXF 393, single dose 10 μM; read-out: growth inhibition (GI%)
[26] = tested on: HS 578T (breast cancer); test: NCI-60 SRB cytotoxicity screen; assay type: cell-based; conditions: Homo sapiens, single dose 10 μM, read-out: growth inhibition (GI%)
[27] = tested on: BT-549 (breast cancer); test: NCI-60 SRB cytotoxicity screen; assay type: cell-based; conditions: Homo sapiens; BT-549, single dose 10 μM; read-out: growth inhibition (GI%)
[28] = tested on: T-47D (breast cancer); test: NCI-60 SRB cytotoxicity screen; assay type: cell-based; conditions: Homo sapiens, T47D, single dose 10 μM, read-out: growth inhibition (GI%)
[29] = tested on: DU-145 (prostate cancer); test: NCI-60 SRB cytotoxicity screen; assay type: cell-based; conditions: Homo sapiens; DU-145, single dose 10 μM; read-out: growth inhibition (GI%)

Row | SMILES | inhibition at 10 µM [1] [%] | inhibition at 10 µM [2] [%] | inhibition at 10 µM [3] [%] | inhibition at 10 µM [4] [%] | inhibition at 10 µM [5] [%] | inhibition at 10 µM [6] [%] | inhibition at 10 µM [7] [%] | inhibition at 10 µM [8] [%] | inhibition at 10 µM [9] [%] | inhibition at 10 µM [10] [%] | inhibition at 10 µM [11] [%] | inhibition at 10 µM [12] [%] | inhibition at 10 µM [13] [%] | inhibition at 10 µM [14] [%] | inhibition at 10 µM [15] [%] | inhibition at 10 µM [16] [%] | inhibition at 10 µM [17] [%] | inhibition at 10 µM [18] [%] | inhibition at 10 µM [19] [%] | inhibition at 10 µM [20] [%] | other results
1 | CCc1cccc2cc(-c3cc(-c4ccc(F)cc4)[nH]c(=S)c3C#N)c(Cl)nc12 [Compound 5d, 4-(2-Chloro-8-ethylquinolin-3-yl)-6-(4-fluorophenyl)-2-thioxo-1,2-dihydropyridine-3-carbonitrile] | < 10 | 29.3 | 23 | < 10 | 19.6 | < 10 | 11.8 | < 10 | 14.8 | < 10 | 21 | 12.3 | 39.1 | 12.4 | < 10 | < 10 | < 10 | 25.7 | 28.6 | < 10 | inhibition at 10 µM [21]: < 10%; inhibition at 10 µM [22]: < 10%; inhibition at 10 µM [23]: 20.9%; inhibition at 10 µM [24]: < 10%; inhibition at 10 µM [25]: < 10%; inhibition at 10 µM [26]: 18.2%; inhibition at 10 µM [27]: 12.2%; inhibition at 10 µM [28]: 21.1%; melting point: 235 to 237 °C
2 | CCc1cccc2cc(-c3cc(-c4ccc(Br)cc4)[nH]c(=S)c3C#N)c(Cl)nc12 [Compound 5e, 6-(4-Bromophenyl)-4-(2-chloro-8-ethylquinolin-3-yl)-2-thioxo-1,2-dihydropyridine-3-carbonitrile] | < 10 | < 10 | 14.7 | < 10 | < 10 | < 10 | < 10 | < 10 | < 10 | < 10 | < 10 | < 10 | 19.8 | < 10 | < 10 | < 10 | < 10 | < 10 | < 10 | < 10 | inhibition at 10 µM [21]: < 10%; inhibition at 10 µM [22]: < 10%; inhibition at 10 µM [23]: 11.2%; inhibition at 10 µM [24]: < 10%; inhibition at 10 µM [25]: < 10%; inhibition at 10 µM [29]: < 10%; inhibition at 10 µM [26]: < 10%; inhibition at 10 µM [27]: < 10%; inhibition at 10 µM [28]: 10.4%
3 | CCc1cccc2cc(C3C=C(c4ccc(OC)cc4)NC(=S)N3)c(Cl)nc12 (stereo not shown) [Compound 6a, 4-(2-Chloro-8-ethylquinolin-3-yl)-6-(4-methoxyphenyl)-3,4-dihydropyrimidine-2(1H)-thione] | < 10 | < 10 | < 10 | < 10 | < 10 | < 10 | < 10 | < 10 | < 10 | < 10 | < 10 | < 10 | 14.9 | < 10 | < 10 | < 10 | < 10 | 10.4 | < 10 | < 10 | inhibition at 10 µM [21]: < 10%; inhibition at 10 µM [22]: < 10%; inhibition at 10 µM [23]: 14.9%; inhibition at 10 µM [24]: < 10%; inhibition at 10 µM [25]: < 10%; inhibition at 10 µM [29]: < 10%; inhibition at 10 µM [26]: < 10%; inhibition at 10 µM [27]: < 10%; inhibition at 10 µM [28]: < 10%
4 | CCc1cccc2cc(C3C=C(c4cc(OC)c(OC)c(OC)c4)NC(=S)N3)c(Cl)nc12 (stereo not shown) [Compound 6c, 4-(2-Chloro-8-ethylquinolin-3-yl)-6-(3,4,5-trimethoxyphenyl)-3,4-dihydropyrimidine-2(1H)-thione] | 32.9 | 44.6 | 57.6 | 26.3 | 37.9 | 10.5 | 50.3 | 24.4 | 30.9 | 28.1 | 42.4 | 30 | 23.2 | 33.3 | < 10 | 10.2 | 13.1 | 35.5 | 14.3 | < 10 | inhibition at 10 µM [21]: 12.2%; inhibition at 10 µM [22]: 34%; inhibition at 10 µM [23]: < 10%; inhibition at 10 µM [24]: 24.4%; inhibition at 10 µM [25]: 40.6%; inhibition at 10 µM [29]: 21.7%; inhibition at 10 µM [26]: 39.6%; inhibition at 10 µM [27]: 10.5%; inhibition at 10 µM [28]: 48.6%; melting point: 235 to 237 °C
5 | CCc1cccc2cc(-c3cc(-c4ccc(Br)cc4)[nH]c(=O)c3C#N)c(Cl)nc12 [Compound 4e, 6-(4-Bromophenyl)-4-(2-chloro-8-ethylquinolin-3-yl)-2-oxo-1,2-dihydropyridine-3-carbonitrile] | < 10 | 33.5 | < 10 | < 10 | < 10 | < 10 | < 10 | < 10 | < 10 | < 10 | < 10 | < 10 | < 10 | < 10 | < 10 | < 10 | < 10 | < 10 | < 10 | < 10 | inhibition at 10 µM [21]: < 10%; inhibition at 10 µM [22]: < 10%; inhibition at 10 µM [23]: 11.7%; inhibition at 10 µM [24]: < 10%; inhibition at 10 µM [25]: < 10%; inhibition at 10 µM [29]: < 10%; inhibition at 10 µM [26]: < 10%; inhibition at 10 µM [27]: 27.7%; inhibition at 10 µM [28]: < 10%
6 | CCc1cccc2cc(C3C=C(c4ccc(Br)cc4)NC(=S)N3)c(Cl)nc12 (stereo not shown) [Compound 6e, 6-(4-Bromophenyl)-4-(2-chloro-8-ethylquinolin-3-yl)-3,4-dihydropyrimidine-2(1H)-thione] | < 10 | < 10 | 10.7 | < 10 | < 10 | < 10 | < 10 | < 10 | < 10 | < 10 | < 10 | < 10 | < 10 | < 10 | < 10 | < 10 | < 10 | < 10 | < 10 | < 10 | inhibition at 10 µM [21]: < 10%; inhibition at 10 µM [22]: < 10%; inhibition at 10 µM [23]: 10.7%; inhibition at 10 µM [24]: < 10%; inhibition at 10 µM [25]: < 10%; inhibition at 10 µM [29]: < 10%; inhibition at 10 µM [26]: < 10%; inhibition at 10 µM [27]: < 10%; inhibition at 10 µM [28]: < 10%

From PMC11240139, “Exploring the antitumor potential of novel quinoline derivatives via tubulin polymerization inhibition in breast cancer; design, synthesis and molecular docking” (RSC Advances, 2024)
